In brackets after ≈: the same amount, converted by molar mass. Read-outs that look alike come from different tables or passages of the source.
Columns and labels:
Providencia sp. Pv16 = assay: Antibacterial spectrum, MIC by serial dilution on nutrient agar; type: cell-based; details: 37° C., 17 hours, read-out: Minimum inhibitory concentration
[1] = system: Pseudomonas aeruginosa B-13; assay: as above; type: cell-based; details: B13, 37° C., 17 hours, read-out: Minimum inhibitory concentration
Escherichia coli JR255 = assay: as above; type: cell-based; details: read-out: Minimum inhibitory concentration
Sarcina lutea PCI 1001 = assay: as above; type: cell-based; details: Micrococcus luteus, PCI1001, 37° C., 17 hours, read-out: Minimum inhibitory concentration
[2] = system: Klebsiella pneumoniae PCI602; assay: as above; type: cell-based; details: 37° C., 17 hours, read-out: Minimum inhibitory concentration
[3] = system: Staphylococcus aureus Smith; assay: as above; type: cell-based; details: read-out: Minimum inhibitory concentration
[4] = system: Bacillus subtilis NRRL B-558; assay: as above; type: cell-based; details: read-out: Minimum inhibitory concentration
Bacillus anthracis = assay: microbe, parasite or virus in culture; type: cell-based; details: 17 h, read-out: Minimum inhibitory concentration
Salmonella typhi T-63 = assay: Antibacterial spectrum, MIC by serial dilution on nutrient agar; type: cell-based; details: Salmonella enterica, 17 h, read-out: Minimum inhibitory concentration
Serratia marcescens = assay: as above; type: cell-based; details: read-out: Minimum inhibitory concentration
[5] = system: Escherichia coli K-12 J5R11-2; assay: as above; type: cell-based; details: read-out: Minimum inhibitory concentration
[6] = system: Salmonella enteritidis 1891; assay: as above; type: cell-based; details: Salmonella enterica, 37° C., 17 hours, read-out: Minimum inhibitory concentration
Proteus rettgeri GN466 = assay: as above; type: cell-based; details: Providencia rettgeri, read-out: Minimum inhibitory concentration
[7] = system: Pseudomonas aeruginosa H9; assay: as above; type: cell-based; details: 37° C., 17 hours, read-out: Minimum inhibitory concentration
mice = assay: Acute toxicity by intravenous injection in mice
[8] = system: Pseudomonas aeruginosa GN315; assay: Antibacterial spectrum, MIC by serial dilution on nutrient agar; type: cell-based; details: 37° C., 17 hours, read-out: Minimum inhibitory concentration
[9] = system: Pseudomonas aeruginosa 21-75; assay: as above; type: cell-based; details: 2175, 37° C., 17 hours, read-out: Minimum inhibitory concentration
[10] = system: Pseudomonas aeruginosa A3; assay: as above; type: cell-based; details: 37° C., 17 hours, read-out: Minimum inhibitory concentration
[11] = system: Gram-negative and Gram-positive bacteria; assay: Antibacterial activity, overall statement; type: cell-based
Protocol: The antibacterial spectra of 3-O-demethylistamycin B.sesquicarbonate and 3-O-demethyl-2"-N-formimidoylistamycin B.disulphate.trihydrate are shown in Table 2, along with that of istamycin B for comparison purposes.
*^1 Determined according to a standard serial dilution method on
nutrient agar plates which were incubated at 37° C. for 17 hours.

[12] = system: Escherichia coli K-12 LA290 R55; assay: Antibacterial spectrum, MIC by serial dilution on nutrient agar; type: cell-based; details: K12LA290R55, 17 h, read-out: Minimum inhibitory concentration
in vivo = details: mouse, iv
[13] = system: Escherichia coli K-12 LA290 R64; assay: Antibacterial spectrum, MIC by serial dilution on nutrient agar; type: cell-based; details: K12LA290R64, 17 h, read-out: Minimum inhibitory concentration
Escherichia coli K-12 = assay: as above; type: cell-based; details: K12, 37° C., 17 hours, read-out: Minimum inhibitory concentration
Pseudomonas aeruginosa = assay: Antibacterial activity against Pseudomonas aeruginosa; type: cell-based
resistant bacteria = assay: Antibacterial activity against resistant bacteria; type: cell-based
[14] = system: Gram-negative and Gram-positive bacteria; details: relative to istamycin A; earlier work; cited from earlier work
[15] = Escherichia coli JR255, nutrient agar, 37° C., 17 hours
[16] = Staphylococcus aureus Smith, nutrient agar, 37° C., 17 hours
[17] = NRRLB558, Bacillus subtilis NRRL B-558, nutrient agar, 37° C., 17 hours
[18] = K12J5R112, Escherichia coli K-12 J5R11-2, nutrient agar, 37° C., 17 hours
[19] = nutrient agar, 37° C., 17 hours
[20] = listed as 3-O-demethylistamycin B

SMILES	MIC (Providencia sp. Pv16) [µg/mL]	MIC [1] [µg/mL]	MIC (Escherichia coli JR255; [15]) [µg/mL]	MIC (Sarcina lutea PCI 1001) [µg/mL]	MIC [2] [µg/mL]	MIC [3, 16] [µg/mL]	MIC [4, 17] [µg/mL]	MIC (Bacillus anthracis) [µg/mL]	MIC (Salmonella typhi T-63) [µg/mL]	MIC [5, 18] [µg/mL]	MIC [6] [µg/mL]	MIC (Proteus rettgeri GN466; GN466, 17 h) [µg/mL]	MIC [7] [µg/mL]	toxicity (in words) (mice)	MIC [8] [µg/mL]	MIC [9] [µg/mL]	MIC [10] [µg/mL]	MIC [12] [µg/mL]	MIC [13] [µg/mL]	MIC (Escherichia coli K-12) [µg/mL]	other results
CNCC1CCC(N)C(OC2C(N)CC(O)C(N(C)C(=O)CNC=N)C2O)O1 (centres unmarked) [3-O-Demethyl-2"-N-formimidoylistamycin B]	25 (≈ 62.1 µM)	> 100	0.78 (≈ 1.94 µM)	< 0.2	1.56 (≈ 3.88 µM)	< 0.2	< 0.2	< 0.2	0.78 (≈ 1.94 µM)	1.56 (≈ 3.88 µM)	1.56 (≈ 3.88 µM)	3.13 (≈ 7.78 µM)	12.5 (≈ 31.1 µM)	low toxicity to animals	6.25 (≈ 15.5 µM)	25 (≈ 62.1 µM)	1.56 (≈ 3.88 µM)	1.56 (≈ 3.88 µM)	1.56 (≈ 3.88 µM)	1.56 (≈ 3.88 µM)	MIC (Serratia marcescens; 17 h): 3.13 µg/mL (≈ 7.78 µM); antibacterial activity (in words) [11]: high antibacterial activity against a wide variety of Gram-negative and Gram-positive bacteria; MTD (in vivo): 160 mg/kg
CNCC1CCC(N)C(OC2C(N)CC(O)C(N(C)C(=O)CN)C2O)O1 (centres unmarked) [3-O-Demethylistamycin B]	25 (≈ 66.6 µM)	50 (≈ 133 µM)	–	0.39 (≈ 1.04 µM)	3.13 (≈ 8.34 µM)	–	–	< 0.2	1.56 (≈ 4.15 µM)	–	3.13 (≈ 8.34 µM)	6.25 (≈ 16.6 µM)	25 (≈ 66.6 µM)	low toxicity to animals	12.5 (≈ 33.3 µM)	50 (≈ 133 µM)	3.13 (≈ 8.34 µM)	6.25 (≈ 16.6 µM)	3.13 (≈ 8.34 µM)	3.13 (≈ 8.34 µM)	MIC (Escherichia coli JR255; Escherichia coli, JR255, 17 h): 1.56 µg/mL (≈ 4.15 µM); MIC ([3]; Staphylococcus aureus, 17 h): < 0.2 µg/mL; MIC ([4]; Bacillus subtilis, NRRLB558, 17 h): < 0.2 µg/mL; MIC (Serratia marcescens; [19]): 12.5 µg/mL (≈ 33.3 µM); MIC ([5]; Escherichia coli, K12J5R112, 17 h): 1.56 µg/mL (≈ 4.15 µM); effectiveness against Pseudomonas aeruginosa (in words) (Pseudomonas aeruginosa): effective against not only Pseudomonas aeruginosa; toxicity (in words) (mice; [20]): low toxicity; antibacterial activity (in words) [11]: high antibacterial activity; antibacterial activity (in words) [11, 20]: high antibacterial activity against a wide variety of Gram-negative and Gram-positive bacteria; effectiveness against a variety of resistant bacteria (in words) (resistant bacteria): effective against not only Pseudomonas aeruginosa but also a variety of resistant bacteria; MTD (in vivo): 160 mg/kg
CNCC1CCC(N)C(OC2C(N)CC(OC)C(N(C)C(=O)CN)C2O)O1 (centres unmarked) [Istamycin B, istamycin B]	6.25 (≈ 16 µM)	> 100	0.78 (≈ 2 µM)	0.2 (≈ 0.513 µM)	1.56 (≈ 4.01 µM)	< 0.2	< 0.2	< 0.2	0.39 (≈ 1 µM)	1.56 (≈ 4.01 µM)	1.56 (≈ 4.01 µM)	–	50 (≈ 128 µM)	–	50 (≈ 128 µM)	100 (≈ 257 µM)	6.25 (≈ 16 µM)	3.13 (≈ 8.04 µM)	1.56 (≈ 4.01 µM)	1.56 (≈ 4.01 µM)	antibacterial activity compared with istamycin A [14]: higher antibacterial activity than istamycin A; MIC (Serratia marcescens; [19]): 6.25 µg/mL (≈ 16 µM); MIC (Proteus rettgeri GN466; Proteus rettgeri GN466, nutrient agar, 37° C., 17 hours): 6.25 µg/mL (≈ 16 µM)

Source: US4499083A, “3-O-Demethyl derivatives of the istamycin B series of compounds” (Zaidan Hojin Biseibutsu Kagaku Kenkyu Kai, priority 1980, dated 1985)
